Among the data in patent US10646488B2 (Araxes Pharma LLC, priority 2016, dated 2020) are Binding % values, retold here.

One assay concerns the target T1, KRAS G12C 1-169, his-tagged protein, GDP-loaded (Homo sapiens, UniProt P01116, G12C).
T1 construct: KRAS G12C 1-169, his-tagged protein, GDP-loaded
Put plainly: Covalent binding (% modification) to KRAS G12C by mass spectrometry. Also: test concentration or dose not given here. The following applies: covalent binding to KRAS G12C after a ten minute incubation period.
On to `C=CC(=O)N1C[C@H](C)N(c2nc(OC3CCN(C4CC4)CC3)nc3c(F)c(-c4c(C)ccc5[nH]ncc45)c(Cl)cc23)C[C@H]1C` [Compound 78, 1-((2R,5S)-4-(6-chloro-2-((1-cyclopropyl-piperidin-4-yl)oxy)-8-fluoro-7-(5-methyl-1H-indazol-4-yl)quinazolin-4-yl)-2,5-dimethyl-piperazin-1-yl) prop-2-en-1-one], for which the Binding % entry is “++ (++ indicates binding activity from 50 to 90%)”. Turning to `C=CC(=O)N1[C@H](C)CN(c2nc(NC3CCN(C4CC4)CC3)nc3c(F)c(-c4c(C)ccc5cn[nH]c45)c(Cl)cc23)C[C@@H]1C` [Compound 19, 1-((2S,6R)-4-(6-Chloro-2-((1-Cyclopropylpiperidin-4-Yl)Amino)-8-Fluoro-7-(6-Methyl-1H-Indazol-7-Yl)Quinazolin-4-Yl)-2,6-Dimethylpiperazin-1-Yl)Prop-2-En-1-One], the Binding % result is “++ (++ indicates binding activity from 50 to 90%)”.

`C=CC(=O)N1CCN(c2nc(OCCN3CC(F)(F)C3)nc3c(F)c(-c4c(O)cccc4F)c(Cl)cc23)C[C@H]1C` (atropisomer, axis not shown) [Compound 62, 1-((R)-4-((R)-6-chloro-2-(2-(3,3-difluoroazetidin-1-yl)ethoxy)-8-fluoro-7-(2-fluoro-6-hydroxyphenyl)quinazolin-4-yl)-2-methyl-piperazin-1-yl) prop-2-en-1-one]: the Binding % entry is reported as “+ (+ indicates binding activity up to 50%)”. On the same count and under the same terms, then `C=CC(=O)N1[C@H](C)CN(c2nc(NC3CCN(C4CC4)CC3)nc3c(F)c(-c4c(O)cccc4F)c(Cl)cc23)C[C@@H]1C` [Compound 20, 1-((2R,6S)-4-(6-chloro-2-((1-cyclopropyl-piperidin-4-yl)amino)-8-fluoro-7-(2-fluoro-6-hydroxyphenyl)quinazolin-4-yl)-2,6-dimethyl-piperazin-1-yl) prop-2-en-1-one], with “++ (++ indicates binding activity from 50 to 90%)”; and `C=CC(=O)N1C[C@H](C)N(c2nc(OCCN3CC(F)(F)C3)nc3c(F)c(-c4c(C)ccc5[nH]ncc45)c(Cl)cc23)C[C@H]1C` [Compound 55, 1-((2R,5S)-4-(6-chloro-2-(2-(3,3-difluoroazetidin-1-yl)ethoxy)-8-fluoro-7-(5-methyl-1H-indazol-4-yl)quinazolin-4-yl)-2,5-dimethyl-piperazin-1-yl) prop-2-en-1-one], with “+++ (+++ indicates binding activity greater than 90%)”; and `C=CC(=O)N1CCN(c2nc(OCCN(CC)CC)nc3c(F)c(-c4c(O)cccc4F)c(Cl)cc23)[C@@H](C)C1` [Compound 9, 1-((3S)-4-(6-chloro-2-(2-(diethylamino)ethoxy)-8-fluoro-7-(2-fluoro-6-hydroxyphenyl)quinazolin-4-yl)-3-methylpiperazin-1-yl)prop-2-en-1-one], with “++ (++ indicates binding activity from 50 to 90%)”. Same read-out and setting: as for `C=CC(=O)N1C[C@@H](C)N(c2nc(OCCN(CC)CC)nc3c(F)c(-c4c(O)cccc4F)c(Cl)cc23)[C@@H](C)C1` [Compound 16, 1-((3S,5R)-4-(6-chloro-2-(2-(diethylamino)ethoxy)-8-fluoro-7-(2-fluoro-6-hydroxyphenyl)quinazolin-4-yl)-3,5-dimethylpiperazin-1-yl)prop-2-en-1-one], the entry is “++ (++ indicates binding activity from 50 to 90%)”.

The same assay, now with this note: covalent binding to KRAS G12C after a three minute incubation period.
As for `C=CC(=O)N1C[C@H](C)N(c2nc(N3CC(N(C)CC(F)F)C3)nc3c(F)c(-c4c(O)cccc4F)c(Cl)cc23)C[C@H]1C` [Compound 107, 1-((2R,5S)-4-(6-chloro-2-(3-((2,2-difluoroethyl) (methyl)amino)azetidin-1-yl)-8-fluoro-7-(2-fluoro-6-hydroxyphenyl)quinazolin-4-yl)-2,5-dimethyl-piperazin-1-yl) prop-2-en-1-one], the Binding % result is “++ (++ indicates binding activity from 50 to 90%)”. The same measure, in the same setting: then `C=CC(=O)N1CCN(c2nc(N3CC(N(CC)CC)C3)nc3c(F)c(-c4c(O)cccc4F)c(Cl)cc23)[C@@H](C)C1` [Compound 174, 1-((3S)-4-(6-chloro-2-(3-(diethylamino)azetidin-1-yl)-8-fluoro-7-(2-fluoro-6-hydroxyphenyl)quinazolin-4-yl)-3-methyl-piperazin-1-yl) prop-2-en-1-one], with “+++ (+++ indicates binding activity greater than 90%)”; and `C=CC(=O)N1C[C@H](C)N(c2nc(N3CC(N(C)C)C3)nc3c(F)c(-c4c(C)ccc5cn[nH]c45)c(Cl)cc23)C[C@H]1C` [Compound 187, 1-((2R,5S)-4-(6-chloro-2-(3-(dimethylamino)azetidin-1-yl)-8-fluoro-7-(6-methyl-1H-indazol-7-yl)quinazolin-4-yl)-2,5-dimethyl-piperazin-1-yl) prop-2-en-1-one], with “+++ (+++ indicates binding activity greater than 90%)”; and `C=CC(=O)N1C[C@H](C)N(c2nc(N3CC(N(C)C4CC4)C3)nc3c(F)c(-c4c(C)ccc5[nH]ncc45)c(Cl)cc23)C[C@H]1C` [Compound 134, 1-((2R,5S)-4-(6-chloro-2-(3-(cyclopropyl (methyl)amino)azetidin-1-yl)-8-fluoro-7-(5-methyl-1H-indazol-4-yl)quinazolin-4-yl)-2,5-dimethyl-piperazin-1-yl) prop-2-en-1-one], with “++ (++ indicates binding activity from 50 to 90%)”. Same read-out and setting: then `C=CC(=O)N1C[C@H](C)N(c2nc(OCCCN(C)C)nc3c(F)c(-c4cc(O)cc5ccccc45)c(C(F)(F)F)cc23)C[C@H]1C` [Compound 210, 1-((2R,5S)-4-(2-(3-(dimethylamino)propoxy)-8-fluoro-7-(3-hydroxy-naphthalen-1-yl)-6-(trifluoromethyl)quinazolin-4-yl)-2,5-dimethyl-piperazin-1-yl) prop-2-en-1-one], with “+++ (+++ indicates binding activity greater than 90%)”; and `C=CC(=O)N1C[C@H](C)N(c2nc(OCCN3CC(F)(F)C3)nc3c(F)c(-c4c(C)ccc5cn[nH]c45)c(Cl)cc23)C[C@H]1C` (atropisomer, axis not shown) [Compound 128, 1-((2R,5S)-4-(6-chloro-2-(2-(3,3-difluoroazetidin-1-yl)ethoxy)-8-fluoro-7-((S)-6-methyl-1H-indazol-7-yl)quinazolin-4-yl)-2,5-dimethyl-piperazin-1-yl) prop-2-en-1-one], with “+ (+ indicates binding activity greater than 0% and up to 50%)”; and `C=CC(=O)N1C[C@H](C)N(c2nc(Oc3cnn(C)c3)nc3c(F)c(-c4c(C)ccc5[nH]ncc45)c(Cl)cc23)C[C@H]1C` [Compound 217, 1-((2R,5S)-4-(6-chloro-8-fluoro-7-(5-methyl-1H-indazol-4-yl)-2-(1-methyl-1H-pyrazol-4-yloxy)quinazolin-4-yl)-2,5-dimethyl-piperazin-1-yl) prop-2-en-1-one], with “++ (++ indicates binding activity from 50 to 90%)”. On the same count and under the same terms, then `C=CC(=O)N1C[C@H](C)N(c2nc(N3CC(NC)C3)nc3c(F)c(-c4c(C)ccc5cn[nH]c45)c(Cl)cc23)C[C@H]1C` (atropisomer, axis not shown) [Compound 108, 1-((2R,5S)-4-(6-chloro-8-fluoro-7-((R)-6-methyl-1H-indazol-7-yl)-2-(3-(methylamino)azetidin-1-yl)quinazolin-4-yl)-2,5-dimethyl-piperazin-1-yl) prop-2-en-1-one], with “+++ (+++ indicates binding activity greater than 90%)”; and `C=CC(=O)N1C[C@H](C)N(c2nc(N3CC(N(C)C4CCC4)C3)nc3c(F)c(-c4c(C)ccc5cn[nH]c45)c(Cl)cc23)C[C@H]1C` [Compound 144, 1-((2R,5S)-4-(6-chloro-2-(3-(cyclobutyl (methyl)amino)azetidin-1-yl)-8-fluoro-7-(6-methyl-1H-indazol-7-yl)quinazolin-4-yl)-2,5-dimethyl-piperazin-1-yl) prop-2-en-1-one], with “+++ (+++ indicates binding activity greater than 90%)”; and `C=CC(=O)N1C[C@H](C)N(c2nc(OCCN3CCC(F)(F)C3)nc3c(F)c(-c4c(O)cccc4F)c(Cl)cc23)C[C@H]1C` [Compound 203, 1-((2R,5S)-4-(6-chloro-2-(2-(3,3-difluoropyrrolidin-1-yl)ethoxy)-8-fluoro-7-(2-fluoro-6-hydroxyphenyl)quinazolin-4-yl)-2,5-dimethyl-piperazin-1-yl) prop-2-en-1-one], with “+++ (+++ indicates binding activity greater than 90%)”. For `C=CC(=O)N1C[C@H](C)N(c2nc(OCCN3CCC(F)(F)C3)nc3c(F)c(-c4c(O)ccc5ccccc45)c(Cl)cc23)C[C@H]1C` [Compound 213, 1-((2R,5S)-4-(6-chloro-2-(2-(3,3-difluoropyrrolidin-1-yl)ethoxy)-8-fluoro-7-(2-hydroxynaphthalen-1-yl)quinazolin-4-yl)-2,5-dimethyl-piperazin-1-yl) prop-2-en-1-one], the Binding % entry was “+ (+ indicates binding activity greater than 0% and up to 50%)”.

With `C=CC(=O)N1C[C@H](C)N(c2nc(N3CC(N(C)C)C3)nc3c(F)c(-c4cc(Cl)ccc4F)c(Cl)cc23)C[C@H]1C` [Compound 160, 1-((2R,5S)-4-(6-chloro-7-(5-chloro-2-fluoro-phenyl)-2-(3-(dimethylamino)azetidin-1-yl)-8-fluoroquinazolin-4-yl)-2,5-dimethyl-piperazin-1-yl) prop-2-en-1-one], the Binding % entry is reported as “++ (++ indicates binding activity from 50 to 90%)”. The same measure, in the same setting: then `C=CC(=O)N1C[C@H](C)N(c2nc(N3CC(N(C)C4CCC4)C3)nc3c(F)c(-c4c(C)ccc5[nH]ncc45)c(Cl)cc23)C[C@H]1C` [Compound 143, 1-((2R,5S)-4-(6-chloro-2-(3-(cyclobutyl (methyl)amino)azetidin-1-yl)-8-fluoro-7-(5-methyl-1H-indazol-4-yl)quinazolin-4-yl)-2,5-dimethyl-piperazin-1-yl) prop-2-en-1-one], with “+++ (+++ indicates binding activity greater than 90%)”; and `C=CC(=O)N1C[C@H](C)N(c2nc(N3CC4(CCOCC4)C3)nc3c(F)c(-c4c(O)cccc4F)c(Cl)cc23)C[C@H]1C` [Compound 159, 1-((2R,5S)-4-(6-chloro-8-fluoro-7-(2-fluoro-6-hydroxyphenyl)-2-(7-oxa-2-azaspiro[3.5]nonan-2-yl)quinazolin-4-yl)-2,5-dimethyl-piperazin-1-yl) prop-2-en-1-one], with “++ (++ indicates binding activity from 50 to 90%)”.
